# Assay results taken from PMC6468590, “Novel Flavivirus Antiviral That Targets the Host Nuclear Transport Importin α/β1 Heterodimer” (Cells, 2019).
# Molecular target: T1, IMPα2 (importin α, IMPα) (Mus musculus, UniProt P52293)
# T1 construct: gene Kpna2; full-length His6-IMPα2 and IMPαΔIBB (residues 67–529, ARM repeat domain)
# Assay: multi-wavelength analytical ultracentrifugation (co-sedimentation at […] nm), SYPRO orange thermal shift and CD; the IC50 is AlphaScreen inhibition of IMPα binding to IMPβ[…]
smiles,measurement,value
O=C1Nc2ccc(I)cc2/C1=C/c1cc(Br)c(O)c(Br)c1 [GW5074],IC50,10.3 ± 0.8 µM
